# Paper PMC3317778, “Development of a Unique Small Molecule Modulator of CXCR4” (PLoS ONE, 2012)
# Legend:
# [1] = target: T1, CXC chemokine receptor-4 (CXCR4) (Homo sapiens, UniProt P61073)
# [2] = target: T1, CXC chemokine receptor-4 (CXCR4); experiment: competition with biotinylated TN14003 on MDA-MB-231 cells (immunofluorescence); supported by CXCL12-induced cAMP modulation assay in CXCR4-expressing cells (IC50 is for CXCR4/CXCL12 actions); assay type: cell-based
# T1 sequence (P61073 whole entry): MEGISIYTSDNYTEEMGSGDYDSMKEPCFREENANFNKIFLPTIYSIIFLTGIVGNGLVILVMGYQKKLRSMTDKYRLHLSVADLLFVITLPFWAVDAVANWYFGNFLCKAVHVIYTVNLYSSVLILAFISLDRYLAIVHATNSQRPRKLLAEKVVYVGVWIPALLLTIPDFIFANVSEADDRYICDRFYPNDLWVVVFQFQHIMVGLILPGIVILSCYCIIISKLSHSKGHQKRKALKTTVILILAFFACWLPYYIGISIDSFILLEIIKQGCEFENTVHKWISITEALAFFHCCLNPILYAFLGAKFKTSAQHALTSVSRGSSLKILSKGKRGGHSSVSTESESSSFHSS
reference antagonist; block of CXCL12-induced cAMP reduction in U87CD4CXCR4 cell [1],IC50 [2],Structure (SMILES)
1000 nM,–,c1cc(CN2CCCNCCNCCCNCC2)ccc1CN1CCCNCCNCCCNCC1 [AMD3100]
–,~10 nM,"c1cnc(NCc2ccc(CNc3ncccn3)cc2)nc1 [MSX-122, N,N′-(1,4-phenylenebis(methylene))dipyrimidin-2-amine]"
